We go through 8 molecules from publication PMC12362764, “Novel Cyano‐Artemisinin Dimer ZQJ29 Targets PARP1 to Induce Ferroptosis in Pancreatic Cancer Treatment” (Advanced Science, 2025).

One data set has as its system PANC-1 and KP4 cells. Put plainly: Cell death manner assay (co-treatment with death pathway inhibitors, CCK-8). The note with it: 10 µM Z-VAD-FMK, 5 mM 3-MA, 10 µM Nec-1, 10 µM Fer-1 with ZQJ29, 24 h. Format: cell-based. How it is done: To investigate the mechanism of ZQJ29 in pancreatic cancer proliferation inhibition, the manners of cell death were analyzed. The cell apoptosis inhibitor Z‐VAD‐FMK, cell autophagy inhibitor 3‐methyladenine, cell necrosis inhibitor necrostatin‐1, cell ferroptosis inhibitor Ferrostatin‐1, and cell ferroptosis agonist Erastin were purchased […] (MCE, USA) and stored at −20 °C. PANC‐1 and KP4 cells were seeded with a density of 2000 cells/100 µL well^−1 into 96 well plates. After 24 h, 10 µM Z‐VAD‐FMK, 5 mM 3‐methyladenine, 10 µM necrostatin‐1, 10 µM Ferrostatin‐1, and 10 µM Erastin were added and co‐incubated with ZQJ29 (1 µM), respectively, for 24 h. Then, 10 µL CCK‐8 was added and incubated at 37 °C for an additional 1 h, the absorbance was measured at 450 nm. The percentage of viability was calculated.

Another data set concerns HCT116. Put plainly: CCK-8 cytotoxicity assay, HCT116. Type of data set: cell-based. The note with it: HCT116, 72 h. How it is done: (§1) Cell viability was evaluated using the Cell Counting Kit‐8 (Beyotime, Shanghai, China) assay. Cells were seeded in 96‐well plates at a density of 2×10^3 cells to allow for attachment. After treatment with ZQJ29 (0.001, 0.01, 0.1, 10, and 25 µM) for 24, 48, and 72 h, 10 µL of CCK‐8 solution was added to each well and incubated for 1 h. The optical density values were then measured at 450 nm using a multifunctional enzyme‐linked immunosorbent assay reader (Tecan, Spark, Switzerland).
On the technique in general: Tetrazolium dyes change colour on reduction, which living cells bring about.

The subject of another data set is HeLa. Kind of data set: CCK-8 cytotoxicity assay, HeLa. Format: cell-based. The note with it: 72 h. How it is done: as §1
The next data set concerns THLE-2. Kind of data set: CCK-8 cytotoxicity assay, THLE-2 (normal cell line). Format: cell-based. Particulars: 72 h. Here is the method: as §1
The subject of another data set is A549. Put plainly: CCK-8 cytotoxicity assay, A549. Format: cell-based. Particulars: A549, 72 h. How it is done: as §1
The test system of the next data set is H1975. Kind of data set: CCK-8 cytotoxicity assay, H1975. Format: cell-based. Here is the method:
as §1

The subject of the next data set is HEK-293T. Put plainly: CCK-8 cytotoxicity assay, HEK-293T (normal cell line). Type of data set: cell-based. Particulars: 72 h. Here is the method:
as §1

The subject of a further data set is PANC-1. Kind of data set: CCK-8 cytotoxicity assay, PANC-1. Type of data set: cell-based. Particulars: PANC-1, 72 h, average of 3 parallel tests. How it is done:
as §1

In the next data set the test system is HPDE6-C7. Put plainly: CCK-8 cytotoxicity assay, HPDE6-C7 (normal cell line). Type of data set: cell-based. Here is the method: as §1
Another data set has as its system JHH7. Put plainly: CCK-8 cytotoxicity assay, JHH7. Type of data set: cell-based. The note with it: JHH7, 72 h. Here is the method:
as §1

A further data set concerns MCF. Put plainly: CCK-8 cytotoxicity assay, MCF. Format: cell-based. Particulars: 72 h. Here is the method:
as §1

A further data set deals with LX2. Put plainly: CCK-8 cytotoxicity assay, LX2 (normal cell line). Type of data set: cell-based. How it is done:
as §1

The subject of another data set is KP4. Put plainly: CCK-8 cytotoxicity assay, KP4. Type of data set: cell-based. Particulars: KP4, 72 h, average of 3 parallel tests. How it is done: as §1
Details of data set [1]: method as in PMID 38859952. The note with it: DHA; cited from earlier work.
Data set [2] can be described thus: Toxicity in tumor-bearing mice (body weight, ALT/AST, H&E). Type of data set: in vivo, BALB/c nude mice. Here is the method: (§2) Five‐week‐old male BALB/c nude mice were purchased from Shanghai Jihui Laboratory Animal Breeding Co., Ltd. (Shanghai, China). After a one‐week acclimatization period, PANC‐1 cells were subcutaneously injected at a dose of 5 × 10^6 cells per mouse. Four weeks post‐injection, once tumor volumes reached 50–100 mm^3, the tumor‐bearing animals were randomly divided into four groups, each consisting of six animals. ZQJ29 was prepared in a 0.5% CMC‐Na solution, while OXA was dissolved in saline. The control group was treated with oral gavage of 0.5% CMC‐Na, while the positive control group was administered intraperitoneal injections of OXA at a dosage of 3 mg kg^−1 every three days. The test groups were treated with oral gavage of ZQJ29 at dosages of 25 and 50 mg kg day^−1. Mouse weights were monitored every other day. Tumor measurements were taken every other day using calipers, and the tumor volume was calculated using the following formula: ½ × length × width^2. Drug administered continued for three weeks. After blood collection at the end of the administration, the mice were humanely euthanized, and their vital organs were promptly harvested, preserved, and embedded in paraffin for H&E staining.
Following the experiments, organs from mice, including hearts, livers, spleens, lungs, and kidneys were swiftly collected and fixed in 4% paraformaldehyde overnight. The tissues were then embedded in paraffin. Afterward, 4‐µm‐thick sections were produced and stained using H&E. Images of these sections were captured with a Leica DM4000b microscope (Germany).
Blood samples were collected and placed in a biochemical incubator for 30 min, followed by centrifugation at 6000 rpm for 10 min. The supernatant was used to measure the following indicators: ALT and AST (both from Jiancheng, Nanjing, China).

A further data set has as its system PANC-1 tumors. Kind of data set: PANC-1 subcutaneous xenograft antitumor activity. The note with it: vs control. Format: in vivo, BALB/c nude mice. Here is the method: as §2

Residues, ends and D or L forms follow the SMILES beside them. *: point of attachment. Cbz = O=C(OCc1ccccc1)*; CH2F = FC*

Regarding `Cn1cnc(N)c2ncnc1-2` [3‐MA, 3‐methyladenine], the “reversal of ZQJ29-induced cell death by co-treatment” value (shortened to “reversal of ZQJ29-induced cell death”) with PANC-1 and KP4 cells is “did not reverse”.
The IC50 is the point on the concentration scale where inhibition reaches its midpoint. A low value points to greater potency in that assay. Turning to `N.N.[Cl][Pt][Cl]` [DDP], the IC50 with HCT116 is 0.071 ± 0.042 µM; in the data set on HeLa, 0.282 ± 0.11 µM; in the data set on THLE-2 it was 1.46 ± 0.984 µM; with A549 it was above 10 µM; in the data set with H1975 (H1975, 72 h), above 10 µM; in the data set on HEK-293T, above 10 µM. The 50% inhibitory concentration (IC50) is above 10 µM in the data set with PANC-1; above 10 µM with HPDE6-C7 (72 h); above 10 µM in the data set with JHH7; 0.036 ± 0.028 µM in the data set on MCF; above 10 µM with LX2 (72 h); above 10 µM with KP4.
`C[C@H]1[C@@H](O)O[C@@H]2O[C@@]3(C)CC[C@H]4[C@H](C)CC[C@@H]1[C@@]24OO3` [DHA, dihydroartemisinin]: the concentration for half-maximal inhibition (IC50) with HCT116 (Homo sapiens, HCT-116) was above 10 µM; with HeLa (Homo sapiens) it was above 10 µM; with THLE-2 (Homo sapiens), 8.66 ± 0.714 µM; in the data set on A549 (Homo sapiens), above 10 µM; in the data set on H1975 (Homo sapiens, NCI-H1975, 72 h) it was above 10 µM; with HEK-293T (Homo sapiens) it was above 10 µM. Moreover, the IC50 is above 10 µM in the data set with PANC-1 (Homo sapiens); above 10 µM in the data set with HPDE6-C7 (HPDE6c7, 72 h); above 10 µM in the data set with JHH7; above 10 µM in the data set with MCF; above 10 µM with LX2 (Homo sapiens, LX-2, 72 h); above 10 µM in the data set on KP4 (Homo sapiens, KP-4). Also, in [1], the t1/2 was 30 min.
`CCOC(=O)c1ccc(NC2CCCCC2)c(N)c1` [Fer‐1, Ferrostatin‐1]: in the data set with PANC-1 and KP4 cells, the “reversal of ZQJ29-induced cell death” value was “reversed”.
Same read-out and setting: next, `CN1C(=O)C(Cc2c[nH]c3ccccc23)NC1=S` (stereo not drawn) [Nec‐1, necrostatin‐1]: “did not reverse”.
For the molecule `O=C1[O][Pt]2([NH][C@@H]3CCCC[C@H]3[NH]2)[O]C1=O` [OXA, oxaliplatin], the 50% inhibitory concentration (IC50) in the data set on HCT116 was 0.103 ± 0.026 µM; in the data set with HeLa, 0.51 ± 0.121 µM; in the data set with THLE-2, 0.777 ± 0.188 µM; in the data set with A549 it was 2.47 ± 0.41 µM; in the data set with H1975 (H1975, 72 h), 3.49 ± 0.552 µM; in the data set on HEK-293T it was above 10 µM. Also, the IC50 with PANC-1 is above 10 µM; with HPDE6-C7 (72 h) it was 2.7 ± 0.567 µM; in the data set on JHH7, 7.15 ± 2.6 µM; in the data set on MCF, 0.196 ± 0.087 µM; with LX2 (72 h) it was 2.46 ± 0.56 µM; with KP4 it was above 10 µM. For the same molecule, the “post-experiment levels of ALT and AST” value in [2] (ZQJ29 50 mg/kg, OXA 3 mg/kg i.p.) is “significantly elevated”. In addition, in [2] (tumor-bearing nude mice, three weeks), the “body weight during the whole treatment period” value is reported as “decreased significantly”. Also, the tumor growth entry with PANC-1 tumors (ZQJ29 25 and 50 mg/kg/day oral gavage, OXA 3 mg/kg i.p. every three days, three weeks) is “effectively inhibited”. The “expression of Ki67 and PCNA in tumor tissue (IHC)” value in the data set with PANC-1 tumors (after treatment) was “significantly reduced”.
With `CC1CCC2C(C)C(OCCNCCOC3OC4OC5(C)CCC6C(C)CCC(C3C)C46OO5)OC3OC4(C)CCC1C32OO4` (stereo not drawn) [SM1044], the 50% inhibitory concentration (IC50) in the data set with HCT116 (Homo sapiens, HCT-116) was 4.98 ± 2.36 µM; in the data set with HeLa (Homo sapiens) it was 2.29 ± 0.429 µM; in the data set on THLE-2 (Homo sapiens), above 10 µM; in the data set with A549 (Homo sapiens), 3.45 ± 1.76 µM; in the data set with H1975 (Homo sapiens, NCI-H1975, 72 h), 6.88 ± 0.014 µM; in the data set with HEK-293T (Homo sapiens), above 10 µM. Further, the IC50 was 5.95 ± 0.501 µM with PANC-1 (Homo sapiens); above 10 µM in the data set with HPDE6-C7 (HPDE6c7, 72 h); 2.13 ± 0.573 µM in the data set with JHH7; 1.33 ± 0.303 µM with MCF; above 10 µM in the data set with LX2 (Homo sapiens, LX-2, 72 h); 3 ± 0.799 µM in the data set on KP4 (Homo sapiens, KP-4).
With `COC(=O)C[C@H](NC(=O)[C@H](C)NC(=O)[C@@H](NC(=O)OCc1ccccc1)C(C)C)C(=O)CF` [Z‐VAD‐FMK] (Cbz-Val-Ala-Asp(OMe)-CH2F), in the data set with PANC-1 and KP4 cells, the “reversal of ZQJ29-induced cell death” value is reported as “did not reverse”.
